How the values were obtained:
Assay type in all cases: in vivo
Aphiscraccivora = test: Insecticidal activity, dipping method
Procedure: (§1) The insecticidal activity of sulfonyl functional compounds in the above embodiments were tested for agricultural biological functions, and the targets of insecticidal activity were Heliothis armigera, Plutella xylostella and Aphiscraccivora.
(§2) The insecticidal activity of sulfonyl functional compounds against Aphiscraccivora was tested by the method of dipping. Mother liquors were prepared by the sulfonyl functional compounds provided in the above embodiments dissolved in ethanol, respectively. 500 mg/L, 250 mg/L or 125 mg/L test solution could be prepared by diluting the different mother liquors with a liquor that contained 0.1 mL/L of emulgator (Tween-80). Every test solution was tested twice (Rep1 and Rep2). A blank control was set up, and the activity results were compared with the blank control. The mortality rate of 0˜30%, 30˜50%, 50-70%, 70˜90%, or 90˜100% could be orderly set as 0, 3, 5, 7, or 9.

Plutella xylostella = test: Insecticidal activity, artificial feed surface coating method; conditions: for mortality at 125 µg/mL / mortality at 250 µg/mL / mortality at 500 µg/mL: Plutella xylostella, read-out: Insecticidal activity (mortality rate grade) Plutella xylostella
Procedure: as §1
(§3) Using Heliothis armigera and Plutella xylostella as target, the insecticidal activities of sulfonyl functional compounds were tested by conventional artificial feed surface coating method. 300 microliters of artificial feed and 20 microliters of test solution were added to each well of the 24-well cell culture plate. The test solution was used in different concentrations and repeated twice (Rep1 and Rep2). The concentrations of the test solution were 500 mg/L, 250 mg/L and 125 mg/L, respectively.
as §2

Heliothis armigera = test: as above; conditions: for mortality at 125 µg/mL / mortality at 250 µg/mL / mortality at 500 µg/mL: Helicoverpa armigera, read-out: Insecticidal activity (mortality rate grade) Heliothis armigera
Procedure: as §1, §3, §2

Row | Compound | Insecticidal activity (mortality rate grade) Aphiscraccivora (Aphiscraccivora; 125 mg/L test solution) | Insecticidal activity (mortality rate grade) Aphiscraccivora (Aphiscraccivora; 250 mg/L test solution) | Insecticidal activity (mortality rate grade) Aphiscraccivora (Aphiscraccivora; 500 mg/L test solution) | mortality at 125 µg/mL (Plutella xylostella; 125 mg/L test solution) [%] | mortality at 250 µg/mL (Plutella xylostella; 250 mg/L test solution) [%] | mortality at 500 µg/mL (Plutella xylostella; 500 mg/L test solution) [%] | mortality at 125 µg/mL (Heliothis armigera; 125 mg/L test solution) [%] | mortality at 250 µg/mL (Heliothis armigera; 250 mg/L test solution) [%] | mortality at 500 µg/mL (Heliothis armigera; 500 mg/L test solution) [%] | Insecticidal activity (mortality rate grade) Plutella xylostella (Plutella xylostella; 125 mg/L test solution) | Insecticidal activity (mortality rate grade) Plutella xylostella (Plutella xylostella; 250 mg/L test solution) | Insecticidal activity (mortality rate grade) Plutella xylostella (Plutella xylostella; 500 mg/L test solution) | Insecticidal activity (mortality rate grade) Heliothis armigera (Heliothis armigera; 125 mg/L test solution) | Insecticidal activity (mortality rate grade) Heliothis armigera (Heliothis armigera; 250 mg/L test solution) | Insecticidal activity (mortality rate grade) Heliothis armigera (Heliothis armigera; 500 mg/L test solution)
1 | N#CCNC(=O)c1c[n+](CCCS(=O)(=O)O)ccc1C(F)(F)F [Compound I-1] | 5 (50-70%) | 7 (70˜90%) | 9 (90˜100%) | 0 to 30 | 0 to 30 | 50 to 70 | 0 to 30 | 0 to 30 | 30 to 50 | – | – | – | – | – | –
2 | N#CCNC(=O)c1c[n+](C/C=C/S(=O)(=O)O)ccc1C(F)(F)F [Compound I-2] | 7 (70˜90%) | 9 (90˜100%) | 9 (90˜100%) | 0 to 30 | 30 to 50 | 50 to 70 | 0 to 30 | 30 to 50 | 50 to 70 | – | – | – | – | – | –
3 | N#CCNC(=O)c1c[n+](CCCCS(=O)(=O)O)ccc1C(F)(F)F [Compound I-3] | 7 (70˜90%) | 7 (70˜90%) | 9 (90˜100%) | 30 to 50 | 50 to 70 | 50 to 70 | 0 to 30 | 30 to 50 | 30 to 50 | – | – | – | – | – | –
4 | O=C(NCCc1ccc(OC(F)(F)F)cc1)c1c[n+](CCCS(=O)(=O)O)ccc1C(F)(F)F [Compound I-4] | 3 (30˜50%) | 5 (50-70%) | 7 (70˜90%) | 0 to 30 | 30 to 50 | 50 to 70 | 0 to 30 | 30 to 50 | 30 to 50 | – | – | – | – | – | –
5 | O=C(NCCc1ccc(OC(F)(F)F)cc1)c1c[n+](C/C=C/S(=O)(=O)O)ccc1C(F)(F)F [Compound I-5] | 3 (30˜50%) | 3 (30˜50%) | 7 (70˜90%) | 30 to 50 | 50 to 70 | 50 to 70 | 0 to 30 | 0 to 30 | 30 to 50 | – | – | – | – | – | –
6 | O=C(NCCc1ccc(OC(F)(F)F)cc1)c1c[n+](CCCCS(=O)(=O)O)ccc1C(F)(F)F [Compound I-6] | 5 (50-70%) | 7 (70˜90%) | 7 (70˜90%) | 0 to 30 | 30 to 50 | 50 to 70 | 0 to 30 | 0 to 30 | 30 to 50 | – | – | – | – | – | –
7 | CC1=NNC(=O)N(N=Cc2ccc[n+](CCCS(=O)(=O)[O-])c2)C1 [IV-1] | 9 (90˜100%) | 9 (90˜100%) | 9 (90˜100%) | – | – | – | – | – | – | 3 (30˜50%) | 3 (30˜50%) | 5 (50-70%) | 0 (mortality rate of 0˜30%) | 3 (30˜50%) | 3 (30˜50%)
8 | CC1=NNC(=O)N(N=Cc2ccc[n+](CC=CS(=O)(=O)[O-])c2)C1 [IV-2] | 7 (70˜90%) | 9 (90˜100%) | 9 (90˜100%) | – | – | – | – | – | – | 0 (mortality rate of 0˜30%) | 3 (30˜50%) | 5 (50-70%) | 0 (mortality rate of 0˜30%) | 0 (mortality rate of 0˜30%) | 0 (mortality rate of 0˜30%)
9 | CC1=NNC(=O)N(N=Cc2ccc[n+](CCCCS(=O)(=O)[O-])c2)C1 [IV-3] | 9 (90˜100%) | 9 (90˜100%) | 9 (90˜100%) | – | – | – | – | – | – | 0 (mortality rate of 0˜30%) | 3 (30˜50%) | 3 (30˜50%) | 0 (mortality rate of 0˜30%) | 0 (mortality rate of 0˜30%) | 3 (30˜50%)
10 | CC(=O)N1N=C(C)CN(N=Cc2ccc[n+](CCCS(=O)(=O)[O-])c2)C1=O [IV-4] | 9 (90˜100%) | 9 (90˜100%) | 9 (90˜100%) | – | – | – | – | – | – | 3 (30˜50%) | 5 (50-70%) | 5 (50-70%) | 0 (mortality rate of 0˜30%) | 3 (30˜50%) | 5 (50-70%)
11 | CCC(=O)N1N=C(C)CN(N=Cc2ccc[n+](CCCS(=O)(=O)[O-])c2)C1=O [IV-5] | 7 (70˜90%) | 7 (70˜90%) | 9 (90˜100%) | – | – | – | – | – | – | 0 (mortality rate of 0˜30%) | 0 (mortality rate of 0˜30%) | 3 (30˜50%) | 0 (mortality rate of 0˜30%) | 0 (mortality rate of 0˜30%) | 0 (mortality rate of 0˜30%)
12 | CC(=O)N1N=C(C)CN(N=Cc2ccc[n+](CC=CS(=O)(=O)[O-])c2)C1=O [IV-6] | 5 (50-70%) | 9 (90˜100%) | 9 (90˜100%) | – | – | – | – | – | – | 0 (mortality rate of 0˜30%) | 3 (30˜50%) | 5 (50-70%) | 0 (mortality rate of 0˜30%) | 3 (30˜50%) | 3 (30˜50%)
13 | CCC(=O)N1N=C(C)CN(N=Cc2ccc[n+](CC=CS(=O)(=O)[O-])c2)C1=O [IV-7] | 5 (50-70%) | 7 (70˜90%) | 9 (90˜100%) | – | – | – | – | – | – | 0 (mortality rate of 0˜30%) | 0 (mortality rate of 0˜30%) | 3 (30˜50%) | 0 (mortality rate of 0˜30%) | 0 (mortality rate of 0˜30%) | 0 (mortality rate of 0˜30%)
14 | CC(=O)N1N=C(C)CN(N=Cc2ccc[n+](CCCCS(=O)(=O)[O-])c2)C1=O [IV-8] | 9 (90˜100%) | 9 (90˜100%) | 9 (90˜100%) | – | – | – | – | – | – | 0 (mortality rate of 0˜30%) | 3 (30˜50%) | 3 (30˜50%) | 0 (mortality rate of 0˜30%) | 0 (mortality rate of 0˜30%) | 0 (mortality rate of 0˜30%)
15 | CCC(=O)N1N=C(C)CN(N=Cc2ccc[n+](CCCCS(=O)(=O)[O-])c2)C1=O [IV-9] | 7 (70˜90%) | 7 (70˜90%) | 9 (90˜100%) | – | – | – | – | – | – | 0 (mortality rate of 0˜30%) | 0 (mortality rate of 0˜30%) | 3 (30˜50%) | 0 (mortality rate of 0˜30%) | 0 (mortality rate of 0˜30%) | 0 (mortality rate of 0˜30%)

From patent publication US20250084061A1, “SULFONYL FUNCTIONAL COMPOUND, METHODS AND USES THEREOF” (Hubei Biopesticide Engineering Research Centre, priority 2023, published 2025)
